Broadly, the IC50 is the concentration needed to halve the response being measured. A lower IC50 goes with greater potency in that assay. A word on the Ki: it is a measure of affinity in units of concentration, obtained from inhibition or displacement. Read a high Ki as weaker binding.

One data set concerns the target T1, UGT1A3 (Homo sapiens, UniProt P35503).
T1 sequence (P35503 29-534): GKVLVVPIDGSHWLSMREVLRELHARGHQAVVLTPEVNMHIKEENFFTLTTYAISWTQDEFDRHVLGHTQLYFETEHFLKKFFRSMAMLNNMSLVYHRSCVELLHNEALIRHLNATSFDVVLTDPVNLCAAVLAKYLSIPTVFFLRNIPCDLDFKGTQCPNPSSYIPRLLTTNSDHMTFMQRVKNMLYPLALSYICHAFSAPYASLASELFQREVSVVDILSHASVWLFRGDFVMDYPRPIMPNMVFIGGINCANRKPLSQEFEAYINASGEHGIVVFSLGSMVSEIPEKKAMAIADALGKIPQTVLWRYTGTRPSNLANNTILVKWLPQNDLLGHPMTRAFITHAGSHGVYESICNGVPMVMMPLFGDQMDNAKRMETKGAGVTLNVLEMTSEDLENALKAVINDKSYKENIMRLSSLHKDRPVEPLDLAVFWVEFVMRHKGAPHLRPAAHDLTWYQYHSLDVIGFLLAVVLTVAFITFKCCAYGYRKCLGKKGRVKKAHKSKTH
Briefly: Inhibition of 4-MU glucuronidation by recombinant UGT1A3. To be noted: recombinant UGT1A3, pH 7.4, probe 4-MU.

The next data set concerns the target T2, UGT1A10 (Homo sapiens, UniProt Q9HAW8).
T2 sequence (Q9HAW8 26-530): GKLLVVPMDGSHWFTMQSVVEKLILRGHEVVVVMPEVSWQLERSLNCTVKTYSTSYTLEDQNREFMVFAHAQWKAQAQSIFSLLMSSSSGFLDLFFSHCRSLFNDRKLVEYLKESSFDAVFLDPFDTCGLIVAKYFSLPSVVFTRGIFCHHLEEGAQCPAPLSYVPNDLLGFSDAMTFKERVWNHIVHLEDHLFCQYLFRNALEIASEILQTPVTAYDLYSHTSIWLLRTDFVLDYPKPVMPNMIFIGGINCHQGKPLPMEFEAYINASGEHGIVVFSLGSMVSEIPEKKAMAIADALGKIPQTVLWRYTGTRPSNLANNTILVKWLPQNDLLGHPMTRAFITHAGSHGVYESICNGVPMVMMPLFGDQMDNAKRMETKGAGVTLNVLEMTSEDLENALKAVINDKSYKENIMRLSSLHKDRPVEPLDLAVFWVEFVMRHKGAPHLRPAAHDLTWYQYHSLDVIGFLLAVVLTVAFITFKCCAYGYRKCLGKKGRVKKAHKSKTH
Briefly: Inhibition of 4-MU glucuronidation by recombinant UGT1A10. To be noted: recombinant UGT1A10, pH 7.4, probe 4-MU.

Data set [1] deals with T3, UGT1A9 (Homo sapiens, UniProt O60656).
T3 sequence (O60656 26-530): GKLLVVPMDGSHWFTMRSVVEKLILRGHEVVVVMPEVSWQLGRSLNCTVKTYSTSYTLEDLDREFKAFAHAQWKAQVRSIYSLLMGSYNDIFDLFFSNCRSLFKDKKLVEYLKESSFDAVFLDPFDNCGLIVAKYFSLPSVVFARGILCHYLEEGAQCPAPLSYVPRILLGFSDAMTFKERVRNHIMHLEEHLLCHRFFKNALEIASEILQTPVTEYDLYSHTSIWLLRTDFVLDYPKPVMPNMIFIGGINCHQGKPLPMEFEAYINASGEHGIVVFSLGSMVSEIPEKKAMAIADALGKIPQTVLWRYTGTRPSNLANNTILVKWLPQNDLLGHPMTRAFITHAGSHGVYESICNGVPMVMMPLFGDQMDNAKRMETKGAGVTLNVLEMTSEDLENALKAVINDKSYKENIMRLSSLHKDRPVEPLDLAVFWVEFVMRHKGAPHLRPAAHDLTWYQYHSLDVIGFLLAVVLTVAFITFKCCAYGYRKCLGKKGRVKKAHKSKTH
Briefly: biochemical.

The next data set addresses T4, UGT2B17 (Homo sapiens, UniProt O75795).
T4 sequence (O75795 24-530): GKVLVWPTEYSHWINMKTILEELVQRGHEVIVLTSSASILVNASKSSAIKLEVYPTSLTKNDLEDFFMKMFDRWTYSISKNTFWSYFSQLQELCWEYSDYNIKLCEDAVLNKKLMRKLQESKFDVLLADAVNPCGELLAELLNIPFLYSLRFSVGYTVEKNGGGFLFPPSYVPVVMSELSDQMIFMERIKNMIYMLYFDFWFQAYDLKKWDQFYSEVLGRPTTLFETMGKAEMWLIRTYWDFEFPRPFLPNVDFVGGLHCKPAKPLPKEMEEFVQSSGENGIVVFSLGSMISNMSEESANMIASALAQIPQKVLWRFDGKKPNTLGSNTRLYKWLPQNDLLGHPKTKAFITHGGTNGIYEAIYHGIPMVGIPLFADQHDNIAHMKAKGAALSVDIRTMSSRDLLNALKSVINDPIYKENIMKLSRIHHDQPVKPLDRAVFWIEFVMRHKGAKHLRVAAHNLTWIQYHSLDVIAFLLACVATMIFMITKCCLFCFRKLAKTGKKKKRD
Briefly: Inhibition of 4-MU glucuronidation by recombinant UGT2B17. The following applies: recombinant UGT2B17, pH 7.4, probe 4-MU.

For data set [2], the target named is T3, UGT1A9.
The next data set has as its target T5, UGT1A7 (Homo sapiens, UniProt Q9HAW7).
T5 sequence (Q9HAW7 26-530): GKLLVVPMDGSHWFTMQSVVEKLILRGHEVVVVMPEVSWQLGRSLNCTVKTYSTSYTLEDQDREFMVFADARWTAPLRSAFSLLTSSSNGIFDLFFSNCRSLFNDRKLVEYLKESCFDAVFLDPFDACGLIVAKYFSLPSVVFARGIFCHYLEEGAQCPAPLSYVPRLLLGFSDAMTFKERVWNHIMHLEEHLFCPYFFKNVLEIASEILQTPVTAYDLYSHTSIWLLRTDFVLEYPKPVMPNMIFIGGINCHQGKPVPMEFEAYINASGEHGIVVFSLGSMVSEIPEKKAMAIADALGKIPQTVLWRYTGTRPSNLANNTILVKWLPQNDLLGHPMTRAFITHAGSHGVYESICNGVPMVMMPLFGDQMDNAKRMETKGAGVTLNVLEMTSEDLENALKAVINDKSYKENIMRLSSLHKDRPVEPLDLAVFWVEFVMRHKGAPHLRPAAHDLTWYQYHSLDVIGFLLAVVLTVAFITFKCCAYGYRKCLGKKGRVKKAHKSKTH
Briefly: Prediction of DDI risk (AUCi/AUC) from in vitro data, UGT1A7 substrates. Set-up: purchased BD Gentest (Woburn, MA); host or cells: baculovirus-infected insect cells.

Consider `COc1cc2c(Nc3ccc(Br)cc3F)ncnc2cc1OCC1CCN(C)CC1` [Vandetanib, vandetanib], for which the activity at 75 min, 100 µM on UGT1A3 stood at 104 ± 2.1%. Besides, the activity at 120 min, 100 µM stood at 49 ± 0.4% at UGT1A10 and 69.7 ± 3.1% on UGT2B17. The compound also gave an IC50 at UGT1A9 [1] of 5 ± 0.4 µM. In addition, on UGT1A9 [1], the affinity, expressed as Ki, was 9 ± 1.2 µM. Also, at UGT1A9 [2] (fm not given), the “Predicted increase in the AUC of substrate by UGT1A9 inhibition” value was “about 2%”.

`CS(=O)(=O)CCNCc1ccc(-c2ccc3ncnc(Nc4ccc(OCc5cccc(F)c5)c(Cl)c4)c3c2)o1` [Lapatinib, lapatinib]: on UGT1A3, the activity at 75 min, 100 µM turned out to be 96.5 ± 7.5%. For the same compound, the results for the activity at 120 min, 100 µM at UGT1A10 and on UGT2B17 were 73.6 ± 4.8% and 94.8 ± 5.7%, respectively. Also, the “Predicted increase in the AUC of substrate by UGT1A7 inhibition” value at UGT1A7 (fm not given, Imax,u used) was around 1%.

`CNC(=O)c1ccccc1Sc1ccc2c(/C=C/c3ccccn3)n[nH]c2c1` [Axitinib, axitinib]: the activity at 75 min, 100 µM at UGT1A3 is 47.8 ± 12.8%. Also, the values for the activity at 120 min, 100 µM on UGT1A10 and on UGT2B17 were 55.5 ± 2.7% and 55.9 ± 0.3%, respectively. Also, the IC50 at UGT1A9 [1] came to 3.6 ± 0.7 µM. The “Predicted AUCi/AUC ratio of UGT1A9 substrates” value at UGT1A9 [2] (fm is 1) was around 1. Also, at UGT1A7 (fm is 1), the “Predicted AUCi/AUC ratio of UGT1A7 substrates” value is on record as around 1.

The record behind these values is article PMC4672351, “Drug-Drug Interaction Potentials of Tyrosine Kinase Inhibitors via Inhibition of UDP-Glucuronosyltransferases” (Scientific Reports, 2015).
